Experimental data published in US7432227B2, “6-alkyl or alkenyl-4-aminopicolinates and their use as herbicides” (Dow AgroSciences LLC, priority 2003, dated 2008).

Legend:
[1] = test system: Cocklebur (Xanthium strumarium); experiment: Postemergence herbicidal activity, Cocklebur; format: in vivo; settings: post-emergence, 336 h, rate 250 ppm, visual score after 2 weeks, 0 = no injury, 100 = complete kill, read-out: Post-emergent % control XANST
Protocol: (§1) Seeds of the desired test plant species were planted in Grace-Sierra MetroMix® 306 planting mixture, which typically has a pH of 6.0 to 6.8 and an organic matter content of about 30 percent, in plastic pots with a surface area of 64 square centimeters. When required to ensure good germination and healthy plants, a fungicide treatment and/or other chemical or physical treatment was applied. The plants were grown for 7-21 days in a greenhouse with an approximate 15 hr photoperiod which was maintained at about 23-29° C. during the day and 22-28° C. during the night. Nutrients and water were added on a regular basis and supplemental lighting was provided with overhead metal halide 1000-Watt lamps as necessary. The plants were employed for testing when they reached the first or second true leaf stage. A weighed amount, determined by the highest rate to be tested, of each test compound was placed in a 20 mL glass vial and was dissolved in 4 mL of a 97:3 v/v (volume/volume) mixture of acetone and dimethyl sulfoxide (DMSO) to obtain concentrated stock solutions. […] The concentrated stock solutions obtained were diluted with an aqueous mixture containing acetone, water, isopropyl alcohol, DMSO, Atplus 411F crop oil concentrate, and Triton X-155 surfactant in a 48.5:39:10:1.5:1.0:0.02 v/v ratio to obtain spray solutions of known concentration. The solutions containing the highest concentration to be tested were prepared by diluting 2 mL aliquots of the stock solution with 13 mL of the mixture and lower concentrations were prepared by serial dilution of the stock solution. Approximately 1.5 mL aliquots of each solution of known concentration were sprayed evenly onto each of the test plant pots using a DeVilbiss atomizer driven by compressed air pressure of 2 to 4 psi (140 to 280 kilopascals) to obtain thorough coverage of each plant. Control plants were sprayed in the same manner with the aqueous mixture. In this test an application rate of 1 ppm results in the application of approximately 1 g/Ha. The treated plants and control plants were placed in a greenhouse as described above and watered by sub-irrigation to prevent wash-off of the test compounds. After 2 weeks the condition of the test plants as compared with that of the untreated plants was determined visually and scored on a scale of 0 to 100 percent where 0 corresponds to no injury and 100 corresponds to complete kill.

[2] = test system: Lambsquarter (Chenopodium album); experiment: Postemergence herbicidal activity, Lambsquarter; format: in vivo; settings: post-emergence, 336 h, visual score after 2 weeks, 0 = no injury, 100 = complete kill, read-out: Post-emergent % control CHEAL; for pest or weed control at 250 ppm: rate 250 ppm
Protocol: as §1

[3] = test system: Barnyardgrass (Echinochloa crus-galli); experiment: Postemergence herbicidal activity, Barnyardgrass; format: in vivo; settings: post-emergence, 336 h, visual score after 2 weeks, 0 = no injury, 100 = complete kill, read-out: Post-emergent % control ECHCG; for pest or weed control at 250 ppm: rate 250 ppm
Protocol: as §1

[4] = test system: Giant Foxtail (Setaria faberi); experiment: Postemergence herbicidal activity, Giant Foxtail; format: in vivo; settings: post-emergence, 336 h, visual score after 2 weeks, 0 = no injury, 100 = complete kill, read-out: Post-emergent % control SETFA; for pest or weed control at 250 ppm: rate 250 ppm
Protocol: as §1

[5] = test system: Pigweed (redroot) (Amaranthus retroflexus); experiment: Postemergence herbicidal activity, Pigweed (redroot); format: in vivo; settings: visual score after 2 weeks, 0 = no injury, 100 = complete kill
Protocol: as §1

[6] = test system: Wheat(var.Merica) (Triticum aestivum); experiment: Postemergence herbicidal activity, selectivity to wheat; format: in vivo; settings: crop (wheat) selectivity, visual score after 2 weeks, 0 = no injury
Protocol: as §1, with “Control plants were sprayed in the same manner with the aqueous mixture. In this test an application rate of 1 ppm results in the application of approximately 1 g/Ha. The treated plants and control plants were placed in a greenhouse as described above and watered by sub-irrigation to prevent wash-off of the test compounds.” left out

[7] = test system: Corn (#14 3377) (Zea mays); experiment: Postemergence herbicidal activity, selectivity to corn; format: in vivo; settings: crop (corn) selectivity, visual score after 2 weeks, 0 = no injury
Protocol: as §1

[8] = test system: Lambsquarter (Chenopodium album); experiment: Preemergence herbicidal activity, Lambsquarter; format: in vivo; settings: pre-emergence, 504 h, visual score after 3 weeks, 100 = complete kill or no germination, read-out: Pre-emergent % control CHEAL; for pest or weed control at 280 ppm: rate 280 ppm
Description: (§2) Seeds of the desired test plant species were planted in a soil matrix prepared by mixing a loam soil (43 percent silt, 19 percent clay, and 38 percent sand, with a pH of about 8.1 and an organic matter content of about 1.5 percent) and sand in a 70 to 30 ratio. The soil matrix was contained in plastic pots with a surface area of 113 square centimeters. When required to ensure good germination and healthy plants, a fungicide treatment and/or other chemical or physical treatment was applied. A weighed amount, determined by the highest rate to be tested, of each test compound was placed in a 20 mL glass vial and was dissolved in 4 mL of a 97:3 v/v (volume/volume) mixture of acetone and dimethyl sulfoxide to obtain concentrated stock solutions. […] The stock solutions obtained were diluted with a 99.9:0.1 mixture of water and Tween® […] surfactant to obtain application solutions of known concentration. The solutions containing the highest concentration to be tested were prepared by diluting 2 mL aliquots of the stock solution with 15 mL of the mixture and lower concentrations were prepared by serial dilution of the stock solution. A 2.5 mL aliquot of each solution of known concentration was sprayed evenly onto the soil surface (113 sq. cm) of each seeded pot using a Cornwall 5.0 mL glass syringe fitted with a TeeJet TN-3 hollow cone nozzle to obtain thorough coverage of the soil in each pot. Control pots were sprayed in the same manner with the aqueous mixture. The treated pots and control pots were placed in a greenhouse maintained with an approximate 15 hr photoperiod and temperatures of about 23-29° C. during the day and 22-28° C. during the night. Nutrients and water were added on a regular basis and supplemental lighting was provided with overhead metal halide 1000-Watt lamps as necessary. The water was added by top-irrigation. After 3 weeks the condition of the test plants that germinated and grew as compared with that of the untreated plants that germinated and grew was determined visually and scored on a scale of 0 to 100 percent where 0 corresponds to no injury and 100 corresponds to complete kill or no germination.

[9] = test system: Ivyleaf Morningglory (Ipomoea hederacea); experiment: Preemergence herbicidal activity, Ivyleaf Morningglory; format: in vivo; settings: pre-emergence, 504 h, visual score after 3 weeks, 100 = complete kill or no germination, read-out: Pre-emergent % control IPOHE; for pest or weed control at 280 ppm: rate 280 ppm
Description: as §2

[10] = test system: Crabgrass(large) (Digitaria sanguinalis); experiment: Preemergence herbicidal activity, Crabgrass(large); format: in vivo; settings: pre-emergence, 504 h, visual score after 3 weeks, 100 = complete kill or no germination, read-out: Pre-emergent % control DIGSA; for pest or weed control at 280 ppm: rate 280 ppm
Description: as §2

[11] = test system: Giant Foxtail (Setaria faberi); experiment: Preemergence herbicidal activity, Giant Foxtail; format: in vivo; settings: pre-emergence, 504 h, visual score after 3 weeks, 100 = complete kill or no germination, read-out: Pre-emergent % control SETFA; for pest or weed control at 280 ppm: rate 280 ppm
Description: as §2

| Compound | pest or weed control at 250 ppm [1] [%] | pest or weed control at 250 ppm [2] [%] | pest or weed control at 250 ppm [3] [%] | pest or weed control at 250 ppm [4] [%] | Post-emergent % control AMARE ([5]; rate 250 ppm) [%] | Post-emergent % control TRZAS ([6]; rate 250 ppm) [%] | Post-emergent % control ZEAMX ([7]; rate 250 ppm) [%] | pest or weed control at 280 ppm [8] [%] | pest or weed control at 280 ppm [9] [%] | pest or weed control at 280 ppm [10] [%] | pest or weed control at 280 ppm [11] [%] | other results |
| --- | --- | --- | --- | --- | --- | --- | --- | --- | --- | --- | --- | --- |
| CCc1cc(N)c(Cl)c(C(=O)O)n1 [Compound 6, 4-Amino-3-chloro-6-ethylpyridine-2-carboxylic acid] | 98 | 90 | 0 | 0 | 100 | 0 | 0 | 90 | 100 | 15 | 0 | melting point: 140 to 142 °C |
| CCc1cc(N)c(Cl)c(C(=O)OC)n1 [Compound 4, Methyl 4-amino-3-chloro-6-ethylpyridine-2-carboxylate] | 95 | 100 | 0 | 0 | 98 | 0 | 0 | 98 | 100 | 0 | 0 | – |
| COCc1cc(N)c(Cl)c(C(=O)O)n1 [Compound 9, 4-Amino-3-chloro-6-(methoxymethyl)pyridine-2-carboxylic acid] | 80 | 80 | 0 | 0 | 90 | – | 0 | – | – | – | – | pest or weed control at 560 ppm ([8]; rate 560 ppm): 90%; pest or weed control at 560 ppm ([9]; rate 560 ppm): 50%; pest or weed control at 560 ppm ([10]; rate 560 ppm): 10%; pest or weed control at 560 ppm ([11]; rate 560 ppm): 10% |
| COC(=O)c1nc(C)cc(N)c1Cl [Compound 13, Methyl 4-amino-3-chloro-6-methylpyridine-2-carboxylate] | – | – | – | – | – | – | – | – | – | – | – | pest or weed control at 254 ppm ([2]; rate 254 ppm): 70%; pest or weed control at 254 ppm ([3]; rate 254 ppm): 0%; pest or weed control at 254 ppm ([4]; rate 254 ppm): 0%; Post-emergent % control AMARE ([5]; rate 254 ppm): 90%; Post-emergent % control TRZAS ([6]; rate 254 ppm): 0%; Post-emergent % control ZEAMX ([7]; rate 254 ppm): 0%; pest or weed control at 573 ppm ([8]; rate 573 ppm): 100%; pest or weed control at 573 ppm ([9]; rate 573 ppm): 90%; pest or weed control at 573 ppm ([10]; rate 573 ppm): 0%; pest or weed control at 573 ppm ([11]; rate 573 ppm): 0% |
